Data on 16 molecules can be found in ChEMBL document CHEMBL5523682, “The formyl peptide receptors FPR1 and FPR2 as targets for inflammatory disorders: recent advances in the development of small-molecule agonists” (Eur J Med Chem, 2024).

Series [1] addresses T1, N-formyl peptide receptor 2 (Homo sapiens, UniProt P25090).
T1 sequence (P25090 whole entry): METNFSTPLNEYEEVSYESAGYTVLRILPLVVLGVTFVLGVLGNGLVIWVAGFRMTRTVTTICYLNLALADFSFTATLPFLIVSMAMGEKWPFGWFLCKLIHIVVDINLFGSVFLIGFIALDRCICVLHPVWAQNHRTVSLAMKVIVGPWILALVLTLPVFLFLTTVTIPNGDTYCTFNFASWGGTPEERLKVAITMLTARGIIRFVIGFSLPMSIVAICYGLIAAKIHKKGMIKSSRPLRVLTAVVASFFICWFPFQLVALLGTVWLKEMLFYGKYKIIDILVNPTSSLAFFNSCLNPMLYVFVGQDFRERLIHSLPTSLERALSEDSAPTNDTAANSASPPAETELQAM
The series can be described thus: Agonist activity at human FPR2 expressed in CHO cells assessed as increase in calcium mobilization by Fluo-4 AM dye based fluorescence assay. The format is functional, cell-based. In general terms: Calcium flux is commonly read through the fluorescence of an indicator in the cells.

Series [2] has as its target T2, fMet-Leu-Phe receptor (Mus musculus, UniProt P33766).
T2 sequence (P33766 whole entry): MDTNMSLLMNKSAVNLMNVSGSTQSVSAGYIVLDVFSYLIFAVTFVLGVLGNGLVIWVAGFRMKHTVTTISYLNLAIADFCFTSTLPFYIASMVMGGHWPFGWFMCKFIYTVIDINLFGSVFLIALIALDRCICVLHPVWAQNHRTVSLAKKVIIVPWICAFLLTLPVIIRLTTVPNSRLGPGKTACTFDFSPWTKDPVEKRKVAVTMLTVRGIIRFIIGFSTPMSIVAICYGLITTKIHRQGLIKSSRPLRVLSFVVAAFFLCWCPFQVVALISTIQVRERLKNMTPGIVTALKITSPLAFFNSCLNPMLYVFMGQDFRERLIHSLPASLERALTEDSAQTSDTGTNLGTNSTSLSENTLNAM
The series can be described thus: Agonist activity at mouse FPR1. The format is functional.

The target in series [3] is T3, fMet-Leu-Phe receptor (Homo sapiens, UniProt P21462).
T3 sequence (P21462 whole entry): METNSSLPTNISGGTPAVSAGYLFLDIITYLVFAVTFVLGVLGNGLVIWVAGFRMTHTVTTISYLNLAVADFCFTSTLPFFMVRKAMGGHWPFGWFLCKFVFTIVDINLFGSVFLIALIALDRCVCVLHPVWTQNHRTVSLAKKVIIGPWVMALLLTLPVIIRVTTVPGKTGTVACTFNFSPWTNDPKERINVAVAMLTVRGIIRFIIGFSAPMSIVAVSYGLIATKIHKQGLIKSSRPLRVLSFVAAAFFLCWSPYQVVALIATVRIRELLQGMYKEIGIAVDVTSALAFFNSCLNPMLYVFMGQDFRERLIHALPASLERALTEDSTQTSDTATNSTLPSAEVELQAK
The series can be described thus: Agonist activity at human FPR1. It counts as functional.

The target of series [4] is T1, N-formyl peptide receptor 2. The series can be described thus: Agonist activity at human FPR2. It counts as functional.
In series [5] the target is T4, Formyl peptide receptor 2 (Mus musculus, UniProt O88536).
T4 sequence (O88536 whole entry): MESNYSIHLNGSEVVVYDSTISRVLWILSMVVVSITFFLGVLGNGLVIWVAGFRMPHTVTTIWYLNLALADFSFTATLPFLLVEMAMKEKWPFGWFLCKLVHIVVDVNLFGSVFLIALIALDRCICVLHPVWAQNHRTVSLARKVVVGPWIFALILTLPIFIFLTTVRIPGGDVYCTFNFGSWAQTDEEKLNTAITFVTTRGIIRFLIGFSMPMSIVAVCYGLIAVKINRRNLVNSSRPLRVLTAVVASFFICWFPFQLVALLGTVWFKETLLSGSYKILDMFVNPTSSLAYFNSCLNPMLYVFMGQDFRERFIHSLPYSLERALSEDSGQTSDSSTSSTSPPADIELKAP
The series can be described thus: Agonist activity at mouse FPR2.

The target in series [6] is T3, fMet-Leu-Phe receptor. The series can be described thus: Agonist activity at FPR1 (unknown origin) transfected in CHO cells by cAMP assay. It counts as functional, cell-based.
Series [7] has as its target T1, N-formyl peptide receptor 2. The series can be described thus: Agonist activity at FPR2 (unknown origin) transfected in CHO cells by cAMP assay. The format is functional, cell-based. Background: Changes in cAMP serve as a functional read-out for many G protein-coupled receptors.
A short description of series [8]: Permeability of compound in PBS buffer at pH 5.5 by UPLC-MS spectrometry based PAMPA assay. The format is ADME. Conditions: read-out: permeability. Background: The PAMPA barrier holds no transporters, so it reflects passive diffusion.
Series [9] has as its target T1, N-formyl peptide receptor 2. The series can be described thus: Agonist activity at FPR2 (unknown origin) expressed in CHO cells by cAMP assay. The format is functional, cell-based.
In series [10] the target is T3, fMet-Leu-Phe receptor. The series can be described thus: Agonist activity at FPR1 (unknown origin) expressed in CHO cells by cAMP assay. The format is functional, cell-based.
A short description of series [11]: Metabolic stability in rat liver microsomes assessed as compound remaining after 30 mins incubation. The format is ADME, Microsome. The settings on record: read-out: Stability.
The nature of series [12]: Oral bioavailability in human at 1 mg/kg. It counts as ADME, organism-based. The settings on record: in vivo.
In series [13] the target is T1, N-formyl peptide receptor 2. The series can be described thus: Binding affinity to human FPR2 expressed in CHO cells assessed as dissociation constant. The format is cell-based.
In series [14] the target is T2, fMet-Leu-Phe receptor. The series can be described thus: Binding affinity to mouse FPR1 expressed in CHO cells assessed as dissociation constant. It counts as cell-based.
The target of series [15] is T3, fMet-Leu-Phe receptor. The series can be described thus: Agonist activity at FPR1 (unknown origin) transfected in CHO cells assessed as increase in calcium mobilization by Fluo-4AM dye based assay. The format is functional, cell-based.
For series [16], the target named is T1, N-formyl peptide receptor 2. The series can be described thus: Agonist activity at FPR2 (unknown origin) transfected in CHO cells assessed as increase in calcium mobilization by Fluo-4AM dye based assay. It counts as functional, cell-based.
Series [17] shares this target. The series can be described thus: Agonist activity at FPR2 (unknown origin) in HEK293 cells. The format is functional, cell-based.
Series [18] shares this target. The series can be described thus: Agonist activity at human FPR2 expressed in HL-60 cells assessed as inhibition of WKYMVM-induced calcium mobilization. The format is functional, cell-based.
A short description of series [19]: Intrinsic clearance in rat liver microsomes. It counts as ADME, Microsome.
Series [20] is described as follows: Half life in rat liver microsomes measured upto 60 mins by LC-MS/MS analysis. The format is ADME, Microsome. Conditions: 1 h.
The target of series [21] is T3, fMet-Leu-Phe receptor. The series can be described thus: Agonist activity at FPR1 (unknown origin) transfected in human HL60 cells assessed as calcium mobilization incubated for 30 mins and measured for 15 mins by fluorometry method. The format is functional, cell-based, HL-60.
The target of series [22] is T1, N-formyl peptide receptor 2. The series can be described thus: Agonist activity at FPR2 (unknown origin) expressed in CHO cells assessed as Calcium mobilization incubated for 30 min by fluorometry method. The format is functional, cell-based.
Series [23] addresses T3, fMet-Leu-Phe receptor. The series can be described thus: Agonist activity against human FPR1 expressed in HL-60 cells by Fluo4-AM dye based intracellular calcium flux assay. It counts as functional, cell-based.
Series [24] has as its target T1, N-formyl peptide receptor 2. The series can be described thus: Agonist activity at human FPR2 expressed in HL-60 cells by Fluo4-AM dye based intracellular calcium flux assay. The format is functional, cell-based.

pEC50, pKd: −log10 of the molar value. Where a SMILES comes first, the peptide text is derived from it. The star is where a group is joined. For = O=C* Where only a bound is given, the exact number is not on record here.

For orientation: pEC50 means the EC50 on a negative log10 scale, so that one unit is a factor of ten. A word on the bioavailability: it is dose-corrected exposure relative to a reference, in per cent. A low value points to little systemic uptake. As usually defined, the pKd is the Kd on a negative log10 scale, so that one unit is a factor of ten.

For `CC[C@H](C)[C@H](NC(=O)Nc1ccc(Br)cc1F)C(=O)O`, the pEC50 in series [1] was 7.06.
Turning to `CC[C@H](C)[C@H](NC(=O)[C@@H](NC(=O)[C@H](Cc1ccccc1)NC(=O)[C@H](CC(C)C)NC(=O)[C@H](CCSC)NC=O)[C@@H](C)CC)C(=O)O` (For-MLFII-OH), the negative logarithm of the EC50 (pEC50) on fMet-Leu-Phe receptor [2] was 10.52; on fMet-Leu-Phe receptor [3], 5.85; in series [4], 8.42; in series [5], 6.04.
In the case of `COc1cc(F)c([C@@H]2CNC(=O)[C@H]2Nc2cc(-c3ccc(Cl)cc3)no2)c(F)c1`, the pEC50 on fMet-Leu-Phe receptor [6] was 6.33; in series [7] it was 8.00. Besides, in [8], the Papp was 110 ×10⁻⁶ cm/s.
As for `COc1cc(F)c([C@H]2CC(=O)NC[C@@H]2NC(=O)Nc2ccc(Cl)cc2)c(F)c1` (racemic), the pEC50 in series [9] is over 9.00; at fMet-Leu-Phe receptor [10] it was 6.00.
On to `N#Cc1ccc(C[C@@H](NC(=O)Nc2ccc(F)cc2)C(=O)NCC2(c3ccc(F)c(Cl)c3)CC2)cc1`, for which the remaining at 0.5 h in series [11] came to 20%.
In [12], `O=C(NCc1ccc(Br)cc1F)[C@@H]1C2CCC([C@H]1C(=O)NC1CCNCC1)C21CC1` (stereo not given in full) had a bioavailability of 0.3%.
For the molecule `CCC1(C(C)C)NC(=O)N(CC(=O)Nc2ccc(Br)cc2)C1=O` (stereo not given), the pEC50 in series [1] was 9.30.
In the case of `CCCCC[C@H](O)[C@H](O)/C=C/C=C/C=C\C=C\[C@@H](O)CCCC(=O)O`, the pKd in series [13] is 8.77; on fMet-Leu-Phe receptor [14] it was 8.82.
Consider `CC(C)C[C@H](NC(=O)CNC(=O)Nc1ccc(Br)cc1)C(=O)OC(C)(C)C`, for which the pEC50 on fMet-Leu-Phe receptor [15] is 5.64; in [16] it was 6.22.
`COCCN1CC[C@H](NC(=O)Nc2ccc(Cl)cc2)[C@@H](c2c(F)cc(OC)cc2F)C1` (racemic): the results for the pEC50 (in [9]; at fMet-Leu-Phe receptor [10]) were over 9.00 and 6.00, respectively.
In turn, `O=C(NCc1ccc(Br)cc1F)[C@@H]1C2CCC([C@H]1C(=O)NC1CCNCC1F)C21CC1` (stereo not given in full) came in with a bioavailability in [12] of 12%. In addition, the pEC50 in [17] was 8.70.
For the molecule `O=C(Nc1ccc(Br)cc1)[C@@H]1C2CCC([C@@H]1C(=O)O)C21CC1` (stereo not given in full), the pEC50 was 5.66 at fMet-Leu-Phe receptor [6] and 6.55 in series [7].
On to `CC[C@H](C)[C@H](NC(=O)[C@H](CC(N)=O)NC(=O)[C@@H](NC(=O)[C@H](CCSC)NC=O)[C@@H](C)O)C(=O)N[C@@H](CCCNC(=N)N)C(=O)N[C@@H](CCCCN)C(=O)N[C@@H](CO)C(=O)N[C@@H](Cc1cnc[nH]1)C(=O)N1CCC[C@H]1C(=O)N[C@@H](CC(C)C)C(=O)N[C@@H](CCSC)C(=O)N[C@@H](CCCCN)C(=O)N[C@H](C(=O)N[C@H](C(=O)N[C@@H](CC(N)=O)C(=O)O)[C@@H](C)CC)[C@@H](C)CC` (For-MTNIRKSHPLMKIIN-OH), for which the pEC50 in [18] is 8.16.
On to `N#Cc1ccc(C[C@H](NC(=O)Nc2ccc(F)cc2)C(=O)NCC2(c3ccc(F)c(Cl)c3)CC2)cc1`, for which the CLH in series [19] was found to be 15 µL/min/mg. Moreover, the t1/2 in [20] was 48 min.
With Ac-AMVSEFLKQAWIENEEQEYVVQTVK-OH, the pEC50 is 5.85 at fMet-Leu-Phe receptor [21] and 5.74 in series [22].
For `COc1cccc(Cc2cc(C)nn(CC(=S)Nc3ccccc3)c2=O)c1`, the pEC50 (at fMet-Leu-Phe receptor [23]; in series [24]) was under 4.30 each time.
